# Experiment: Example 2: phase 3 trial, enavogliflozin 0.3 mg vs dapagliflozin 10 mg once a day for 24 weeks added to metformin in patients with type 2 diabetes (same efficacy, exploratory and safety endpoints)
# Assay type: in vivo, human
# Description: Subjects who met the inclusion/exclusion criteria were administered a placebo of the clinical trial drug under single-blind (subject blinding) conditions during a 2-week run-in period while continuing to receive metformin. […] The randomized subjects were administered two tablets of the clinical trial drug for each administration group once a day, and then visited the institution at weeks 6, 12, 18, and 24 during the 24-week administration period to conduct efficacy and safety evaluations.
# • 1. Change in HbA1c at week 24 after administration of clinical trial drug compared to Visit 2 (randomization)
# • 1. Change in HbA1c at each time point of weeks 6, 12, and 18 after administration of clinical trial drug compared to Visit 2 (randomization) • 2. Change in FPG at each time point of weeks 6, 12, 18, and 24 after administration of clinical trial drug compared to Visit 2 (randomization) • 3. Proportion of subjects achieving HbA1c<7% at each time point of weeks 6, 12, 18, and 24 after administration of clinical trial drug • 4. Proportion of subjects achieving HbA1c<6.5% at each time point of weeks 6, 12, 18, and 24 after administration of clinical trial drug • 5. Proportion of subjects achieving therapeutic response (HbA1c change (HbA1c at Visit 2-HbA1c at each evaluation time point)>0.5% or HbA1c<7% at each evaluation time point compared to Visit 2 (randomization)) at each time point of weeks 6, 12, 18 and 24 after administration of clinical trial drug
# • 1. Change in fasting c-peptide at each time point of weeks 6, 12, 18, and 24 after administration of clinical trial drug compared to Visit 2 (randomization) • 2. Change in body weight at each time point of weeks 6, 12, 18, and 24 after administration of clinical trial drug compared to Visit 2 (randomization) • 3. Change in fasting lipid concentration (total cholesterol, LDL-C, HDL-C, and triglycerides) at each time point of weeks 6, 12, 18, and 24 after administration of clinical trial drug compared to Visit 2 (randomization) • 4. Changes in systolic or diastolic blood pressure at each time point of weeks 6, 12, 18, and 24 after administration of clinical trial drug compared to Visit 2 (randomization) • 5. Changes in β-cell function and insulin resistance measured by HOMA-β and HOMA-IR at each time point of weeks 6, 12, 18, and 24 after administration of clinical trial drug compared to Visit 2 (randomization) • 6. Changes in renal function-related indicators (UACR, UGCR) measured by UACR at each time point of weeks 6, 12, 18, and 24 after administration of clinical trial drug compared to Visit 2 (randomization) • 7. Changes in obesity-related indicators (adiponectin, leptin) at each time point of weeks 6, 12, 18, and 24 after administration of clinical trial drug compared to Visit 2 (randomization)
# [1] = Week 6, PPS, enavogliflozin minus dapagliflozin
# [2] = Week 6, mPPS1, enavogliflozin minus dapagliflozin
# [3] = Week 6, mPPS2, enavogliflozin minus dapagliflozin
# [4] = Week 12, PPS, enavogliflozin minus dapagliflozin
smiles,measurement,setting,value
"OC[C@H]1O[C@@H](c2cc(Cc3ccc(C4CC4)cc3)c(Cl)c3c2CCO3)[C@H](O)[C@@H](O)[C@@H]1O [Enavogliflozin, (2S,3R,4R,5S,6R)-2-(7-chloro-6 (4-cyclopropylbenzyl)-2,3-dihydrobenzofuran-4-yl)-6-(hydroxymethyl)tetrahydro-2H-pyran-3,4,5-triol]","UGCR change from baseline, LS mean difference",[1],15.62 mg/mg
same,"leptin change from baseline, LS mean difference",[1],-0.81 ng/mL
same,"HDL-C change from baseline, ANCOVA LS mean (SE)","Week 6, mPPS1",1.11(0.58) mg/dL
same,"HDL-C change from baseline, Mean (SD)","Week 6, mPPS1",1.18(5.14) mg/dL
same,"HDL-C change from baseline, Median","Week 6, mPPS1",1.00 mg/dL
same,"HDL-C, Mean (SD)","Week 6, mPPS1",52.12(11.10) mg/dL
same,"HDL-C, Median","Week 6, mPPS1",51.00 mg/dL
same,"LDL-C change from baseline, ANCOVA LS mean (SE)","Week 6, mPPS1",−0.09(1.89) mg/dL
same,"LDL-C change from baseline, Mean (SD)","Week 6, mPPS1",−0.67(15.12) mg/dL
same,"LDL-C change from baseline, Median","Week 6, mPPS1",-2.00 mg/dL
same,"LDL-C, Mean (SD)","Week 6, mPPS1",85.85(31.51) mg/dL
same,"LDL-C, Median","Week 6, mPPS1",79.00 mg/dL
same,"Triglycerides change from baseline, ANCOVA LS mean (SE)","Week 6, mPPS1",8.62(6.88) mg/dL
same,"Triglycerides change from baseline, Mean (SD)","Week 6, mPPS1",9.49(73.63) mg/dL
same,"Triglycerides change from baseline, Median","Week 6, mPPS1",-3.00 mg/dL
same,"Triglycerides, Mean (SD)","Week 6, mPPS1",131.59(114.93) mg/dL
same,"Triglycerides, Median","Week 6, mPPS1",97.00 mg/dL
same,"HDL-C change from baseline, LS mean difference",[2],-0.49 mg/dL
same,"LDL-C change from baseline, LS mean difference",[2],-4.29 mg/dL
same,"triglycerides change from baseline, LS mean difference",[2],18.76 mg/dL
same,"Diastolic blood pressure change from baseline, ANCOVA LS mean (SE)","Week 6, mPPS2",−2.75 mmHg
same,"Diastolic blood pressure change from baseline, Mean (SD)","Week 6, mPPS2",−2.80 mmHg
same,"Diastolic blood pressure change from baseline, Median","Week 6, mPPS2",−3.00 mmHg
same,"Diastolic blood pressure, Mean (SD)","Week 6, mPPS2",74.25 mmHg
same,"Diastolic blood pressure, Median","Week 6, mPPS2",74.00 mmHg
same,"Systolic blood pressure change from baseline, ANCOVA LS mean (SE)","Week 6, mPPS2",−3.29(1.02) mmHg
same,"Systolic blood pressure change from baseline, Mean (SD)","Week 6, mPPS2",−3.28(9.34) mmHg
same,"Systolic blood pressure change from baseline, Median","Week 6, mPPS2",−4.00 mmHg
same,"Systolic blood pressure, Mean (SD)","Week 6, mPPS2",126.44(14.45) mmHg
same,"Systolic blood pressure, Median","Week 6, mPPS2",128.00 mmHg
same,"diastolic blood pressure change from baseline, LS mean difference",[3],−1.28 mmHg
same,"systolic blood pressure change from baseline, LS mean difference",[3],−0.58 mmHg
same,"Adiponectin change from baseline, ANCOVA LS mean (SE)","Week 12, PPS",0.84 µg/mL
same,"Adiponectin change from baseline, Mean (SD)","Week 12, PPS",0.9 µg/mL
same,"Adiponectin change from baseline, Median","Week 12, PPS",0.68 µg/mL
same,"Adiponectin, Mean (SD)","Week 12, PPS",7.87 µg/mL
same,"Adiponectin, Median","Week 12, PPS",6.91 µg/mL
same,"HOMA-IR change from baseline, ANCOVA LS mean (SE)","Week 12, PPS",−1.58
same,"HOMA-IR change from baseline, Mean (SD)","Week 12, PPS",−1.36
same,"HOMA-IR change from baseline, Median","Week 12, PPS",−0.99
same,"HOMA-IR, Mean (SD)","Week 12, PPS",2.10
same,"HOMA-IR, Median","Week 12, PPS",1.61
same,"HOMA-β change from baseline, ANCOVA LS mean (SE)","Week 12, PPS",5.57
same,"HOMA-β change from baseline, Mean (SD)","Week 12, PPS",5.59
same,"HOMA-β change from baseline, Median","Week 12, PPS",5.10
same,"HOMA-β, Mean (SD)","Week 12, PPS",51.45
same,"HOMA-β, Median","Week 12, PPS",41.60
same,"Leptin change from baseline, ANCOVA LS mean (SE)","Week 12, PPS",-2.64 ng/mL
same,"Leptin change from baseline, Mean (SD)","Week 12, PPS",-2.73 ng/mL
same,"Leptin change from baseline, Median","Week 12, PPS",-1.45 ng/mL
same,"Leptin, Mean (SD)","Week 12, PPS",9.56 ng/mL
same,"Leptin, Median","Week 12, PPS",6.60 ng/mL
same,"UACR change from baseline, ANCOVA LS mean (SE)","Week 12, PPS",-21.65 g/kg
same,"UACR change from baseline, Mean (SD)","Week 12, PPS",-18550 mg/kg
same,"UACR change from baseline, Median","Week 12, PPS",-1.40 g/kg
same,"UACR, Mean (SD)","Week 12, PPS",19800 mg/kg
same,"UACR, Median","Week 12, PPS",11.05 g/kg
same,"UGCR change from baseline, ANCOVA LS mean (SE)","Week 12, PPS",64.70 mg/mg
same,"UGCR change from baseline, Mean (SD)","Week 12, PPS",63.04 mg/mg
same,"UGCR change from baseline, Median","Week 12, PPS",58.91 mg/mg
same,"UGCR, Mean (SD)","Week 12, PPS",64.53 mg/mg
same,"UGCR, Median","Week 12, PPS",62.30 mg/mg
same,"HOMA-IR change from baseline, LS mean difference",[4],0.02
same,"HOMA-β change from baseline, LS mean difference",[4],−3.17
same,"UACR change from baseline, LS mean difference",[4],-18.27 g/kg
same,"UGCR change from baseline, LS mean difference",[4],19.57 mg/mg
same,"leptin change from baseline, LS mean difference",[4],0.07 ng/mL
same,"HDL-C change from baseline, ANCOVA LS mean (SE)","Week 12, mPPS1",2.31(0.60) mg/dL
same,"HDL-C change from baseline, Mean (SD)","Week 12, mPPS1",2.08(5.60) mg/dL
same,"HDL-C change from baseline, Median","Week 12, mPPS1",2.00 mg/dL
